According to patent publication US9247759B2, “Identification of human T2R receptors that respond to bitter compounds that elicit the bitter taste in compositions, and the use thereof in assays to identify compounds that inhibit (block) bitter taste in compositions and use thereof” (SENOMYX, INC., priority 2007, dated 2016):
Where two headings read alike, the source gives them in different places.

Tests used:
hT2R8 = hT2R8 (Homo sapiens (Human), UniProt Q9NYW2); experiment: hT2R8 antagonist high-throughput FLIPR assay, stable cell line with G16g44, agonist andrographolide; assay type: cell-based
Sequence of hT2R8 (Q9NYW2 whole entry): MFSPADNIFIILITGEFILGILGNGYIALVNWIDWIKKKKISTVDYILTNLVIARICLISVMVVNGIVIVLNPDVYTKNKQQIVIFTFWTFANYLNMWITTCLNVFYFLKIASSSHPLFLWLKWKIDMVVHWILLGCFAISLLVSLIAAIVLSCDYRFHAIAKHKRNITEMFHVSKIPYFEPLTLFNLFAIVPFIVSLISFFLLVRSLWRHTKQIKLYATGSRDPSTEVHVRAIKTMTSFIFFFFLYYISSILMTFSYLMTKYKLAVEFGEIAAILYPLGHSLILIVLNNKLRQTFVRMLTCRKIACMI
In short: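 Antagonist screen: compounds co-applied with agonist andrographolide at 200 μM, a dose giving 70–80% of maximal hT2R8 activation. Fluorescence measured by FLIPR in a stable HEK293 line expressing both hT2R8 and the promiscuous G16g44 protein.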

[1] = read-out: IC50 on hT2R8 bitter receptor
[2] = table after Example 10-97, read-out: hT2R8 IC50

| Structure (SMILES) | IC50 (hT2R8; [1]) [nM] | melting point [°C] | IC50 (hT2R8; [2]) [nM] |
| --- | --- | --- | --- |
| Cc1noc(C)c1Cn1cc(NC(=O)C(C)c2ccccc2)cn1 (centres unmarked) [Example 4-5, N-(1-((3,5-dimethylisoxazol-4-yl)methyl)-1H-pyrazol-4-yl)-2-phenylpropanamide] | 320 | 129 to 130 |  |
| Cc1noc(C)c1Cn1cc(NC(=O)Cc2ccccc2)cn1 [Example 4-6, N-(1-((3,5-dimethylisoxazol-4-yl)methyl)-1H-pyrazol-4-yl)-2-phenylacetamide] | 530 | 106 to 108 |  |
| COc1cccc(C(=O)Nc2cnn(Cc3c(C)noc3C)c2)c1 [Example 4-7, N-(1-((3,5-dimethylisoxazol-4-yl)methyl)-1H-pyrazol-4-yl)-3-methoxybenzamide] | 390 | 127 to 129 |  |
| Cc1noc(C)c1Cn1cc(NC(=O)C23CC4CC(CC(C4)C2)C3)cn1 [Example 4-16, N-(1-((3,5-dimethylisoxazol-4-yl)methyl)-1H-pyrazol-4-yl) adamantane] | 880 | 167 to 169 |  |
| Cc1noc(C)c1Cn1cc(N2C(=O)NC(Cc3ccccc3)C2=O)cn1 (centres unmarked) [Example 10-2, 5-benzyl-3-(1-((3,5-dimethylisoxazol-4-yl)methyl)-1H-pyrazol-4-yl)imidazolidine-2,4-dione] | 180 | 169 to 171 |  |

Now from value to molecule:

| IC50 (hT2R8; [1]) [nM] | melting point [°C] | IC50 (hT2R8; [2]) [nM] | Structure (SMILES) |
| --- | --- | --- | --- |
| 180 | 170 to 171 |  | Cc1noc(C)c1Cn1cc(N2C(=O)c3ccccc3C2=O)cn1 [Example 9-1, 2-(1-((3,5-dimethylisoxazol-4-yl)methyl)-1H-pyrazol-4-yl)isoindoline-1,3-dione] |
| 60 | 117 to 118 | 63 | Cc1noc(C)c1Cn1cc(N2C(=O)CN(CCOc3ccccc3)C2=O)cn1 [Example 10-5, 3-(1-((3,5-dimethylisoxazol-4-yl)methyl)-1H-pyrazol-4-yl)-1-(2-phenoxyethyl)imidazolidine-2,4-dione] |
| 20 | 124 to 126 | 19 | Cc1noc(C)c1Cn1cc(-n2c(=O)n(C)n(Cc3ccccc3)c2=O)cn1 [Example 10-65, 1-Benzyl-4-(1-((3,5-dimethylisoxazol-4-yl)methyl)-1H-pyrazol-4-yl)-2-methyl-1,2,4-triazolidine-3,5-dione] |
| 140 | 97 to 98 | 97 | COc1ccccc1CCN1CC(=O)N(c2cnn(Cc3c(C)noc3C)c2)C1=O [Example 10-76, 3-(1-((3,5-dimethylisoxazol-4-yl)methyl)-1H-pyrazol-4-yl)-1-(2-methoxyphenethyl)imidazolidine-2,4-dione] |
| 60 | 110 to 111 | 64 | Cc1noc(C)c1Cn1cc(N2C(=O)CN(CCc3cccc(F)c3)C2=O)cn1 [Example 10-77, 3-(1-((3,5-dimethylisoxazol-4-yl)methyl)-1H-pyrazol-4-yl)-1-(3-fluorophenethyl)imidazolidine-2,4-dione] |
| 140 | 95 to 96 | 139 | Cc1noc(C)c1Cn1cc(N2C(=O)CN(CCc3ccccc3)C2=O)cn1 [Example 10-78, 3-(1-((3,5-dimethylisoxazol-4-yl)methyl)-1H-pyrazol-4-yl)-1-phenethylimidazolidine-2,4-dione] |
| 80 | 107 to 108 |  | COc1cccc(CN2C(=O)N(c3cnn(Cc4c(C)noc4C)c3)C(=O)C2(C)C)c1 [Example 12-32, 3-(1-((3,5-dimethylisoxazol-4-yl)methyl)-1H-pyrazol-4-yl)-1-(3-methoxybenzyl)-5,5-dimethylimidazolidine-2,4-dione] |
